How the values were obtained:
[1] = tested on: rats subjected to chronic mild stress; test: Open field test after 4 weeks of chronic mild stress protocol; assay type: in vivo, rat; conditions: 4 weeks chronic mild stress, daily oral gavage, 5 min open field test
Description: Open field test was performed using an opaque rectangular box with the dimension of 32 cm high, 38 cm width and 52 cm long was placed in the center of the experiment room supplied with bright lighting. A video camera was set up above the rectangular box to capture the behavior of the animals.
Each animal was gently transferred from its cage into the OFT and allowed to freely explore inside the box. […] The box was cleaned with 70% ethanol during the interval of each test throughout the assessment. The duration of exploratory and immobility was expressed as mean±standard of mean from six replicates (n=6) per group.
The open field test is broadly used to assess exploratory behavior and validated for use in the measurement of anxiety-related behaviors. The procedure consists of subjecting the rat, to an unknown environment from which escape is prevented by surrounding walls. […] Increased exploratory behaviours in rats indicate less anxiety states, whereas immobility indicate anxiety behaviour in rats.

[2] = tested on: rats subjected to chronic mild stress; test: Elevated plus maze after 4 weeks of chronic mild stress protocol; assay type: in vivo, rat; conditions: 4 weeks chronic mild stress, daily oral gavage (PS150 1×10^9 cfu; protein 300 mg/kg; alprazolam), 5 min, comparison between groups
Excerpt: The elevated plus maze (EPM) consists of four arms, two open arms without walls and two enclosed walls of 40 cm high, 50 cm long and 15 cm wide. Each arm of the maze is attached with firm metallic legs with 70 cm high. The EPM was placed in a room with bright lighting, close to the center of the room. The levels of illumination of both open and closed arms were maintained similar. A video camera was set up above the elevated plus maze to capture and record the animal's behavior.
Animal was taken out from its cage and placed at the middle (ie. the junction of the open and closed arm) of EPM, facing away from the maze towards the wall. Each animal was given 5 minutes to explore freely on the EPM. Throughout the assessment, the EPM was cleaned and dried with 70% ethanol before accessing the next animal. The number of open arm entries and time spent in open arms were observed, timed and recorded. The number of entries to open arms and the duration spent on open arms were recorded and expressed as mean±standard of means from six replicates (n=6) per group.
Analyses on rat behavior were carried out after 4 weeks of chronic mild stress protocol. […] Rats were placed at the junction of the four arms of the maze, facing an open arm, and entries/duration in each arm was recorded for 5 min. […]

[3] = tested on: rats subjected to chronic mild stress; test: Morris water maze after chronic mild stress; assay type: in vivo, rat; conditions: 4 weeks chronic mild stress, daily oral gavage, comparison between groups, P<0.05, FIG. 6(a)
Description: The diameter of the MWM used was 210 cm, where the height of the pool was 51 cm with non-reflective interior surfaces. The maze was placed in a room with a video camera set up on top of the maze to capture and record the animal's behavior. The water maze was filled up with water of temperature ranging within 19-22° C. to avoid the rats from getting temperature shock (hypothermia or hyperthermia). Then, a colorless and transparent circular goal or platform (designated as escape platform) with the diameter of 10-12 cm was submerged 1-2 cm below the water surface and ensured with stability to avoid tipping of animal when the rats climb on it.
The start locations of the MWM was designated at East, West and South East, while the escape platform is submerge at North East. A consecutive four daily trials were performed using these three start locations. Briefly, the animals were gently placed on the first start locations and allowed to swim freely to search for the escape platform. A maximum of two minutes was given for each animal to perform the search for the escape platform. All rats were dried thoroughly with clean towel after the Morris test before returning them to their respective cage. Time taken by each animal to locate the escape, escape latency (seconds) is expressed as mean±standard of mean from six replicates (n=6) per group. […]

[4] = tested on: rats subjected to chronic mild stress; test: Forced swim test after 4 weeks of chronic mild stress protocol; assay type: in vivo, rat; conditions: 4 weeks chronic mild stress, daily oral gavage, 5 min forced swim test, comparison between groups, P<0.05, FIG. 3
Description: Forced swim test (FST) was performed in a black opaque swim cylinder with a depth of 68 cm and diameter of 40 cm. The cylinder was filled up with water to the depth of 30 cm, leaving some space on top to prevent the escape of rat. A video camera was set up above the swim cylinder to capture and record the animals' behavior during the test.
Each animal was gently placed into the water in the swim cylinder and was given 5 minutes to swim freely in the swim cylinder. The behavior of the animals were observed and recorded throughout the test. All rats were dried thoroughly with clean towel after the FST before returning them to their respective cage throughout the assessment. The duration of immobility of the rats were timed and then expressed as mean±standard of mean from six replicates (n=6) per group.
Forced swim test is one of the most commonly used assays for the study of depressive-like behavior in rodents. […] In forced swim test, a swimming cylinder filled with 30 cm depth of water. Depression assessment of rats was performed by scoring predominant behavior in each 5-s period of the 300-s test.

[5] = tested on: SH-SY5Y neuroblastoma cells; test: Cell viability (MTT) upon dexamethasone-induced neurotoxicity; assay type: cell-based, human; conditions: dexamethasone 25 μM, MTT 48 h after treatment, unfermented MRS control = 100% viability, FIG. 11
Description: Neuroblastoma cell line, SH-SY5Y cells were purchased from Korea Cell Line Bank (KCLB; Seoul, Korea). Cells were maintained in high glucose Dulbecco's Modified Eagle Medium (DMEM; Difco, Detroit, Mich., USA) supplemented with 10% heat-inactivated fetal bovine serum (FBS; Gibco Life Technologies Inc, Grand Island, N.Y., USA), 100 U/mL penicillin/streptomycin (Gibco Life Technologies Inc, Grand Island, N.Y., USA). Cultures were seeded into flasks containing supplemented medium and maintained at 37° C. in a humidified atmosphere of 5% CO2 and 95% air.
The SH-SY5Y cells were seeded into 96-well culture plates at a seeding density 1×10^5 cells per well. All cells in this study were maintained in 10% serum medium until the dexamethasone (Dex; Sigma-Aldrich, Steinheim, Germany) treatment. Cells were incubated for 24 h to allow attachment to the culture plate before treatment. […] The 3-(4, 5 dimethylthiazol-2-yl)-2,5-diphenyl-tetrazolium bromide (MTT; Sigma-Aldrich, Steinheim, Germany) reduction was analyzed 48 h after treatment.
Cell viability was measured by quantitative colorimetric assay with MTT, as described previously by Denizot and Lang (J Immunol Methods. 1986 May 22; 89(2):271-7.). […] Colorimetric determination of MTT reduction was measured at 570 nm using microplate reader (Thermo Scientific, Waltham, Mass., US). […]

Compound | Duration of immobility ([1]; between naïve control, positive control, PS150 and protein fraction groups, FIG. 2) | Duration of exploratory activity ([1]; comparison between groups, P<0.05, FIG. 2) | Number of entries into the open arms ([2]; P<0.05, FIG. 1(a)) | Ratio of time spent on the closed arms to the time spent on the open arms ([2]; P<0.05, FIG. 1(b)) | Escape latency [3] | Time spent immobile [4] | Neuroprotective effect (cell viability) against dexamethasone [5]
Cc1nnc2n1-c1ccc(Cl)cc1C(c1ccccc1)=NC2 [alprazolam] | insignificantly different | insignificantly different | insignificant differences | insignificant differences | Insignificant difference | insignificantly different | –
fraction A: HPLC-purified fraction of the PS150 protein fraction, approximately 55 kDa, identified as elongation factor Tu (SEQ ID NO:4) | – | – | – | – | – | – | most prevalent neuroprotective effect
